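Method: 48-hour compound exposure of cells in 96-well plates, five concentrations, linear interpolation of endpoints. GI50: concentration for 50% inhibition of growth. TGI: total growth inhibition.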
Tests used:
Assay in all cases: growth of human tumour cells (NCI), 48 h
[1] = test system: NCI-H226 lung
[2] = test system: HL-60(TB) leukemia
[3] = test system: OVCAR-3 ovarian
[4] = test system: SF-295 CNS
[5] = test system: HCC-2998 colon
[6] = test system: NCI-H460 lung
[7] = test system: SNB-19 CNS
[8] = test system: SNB-75 CNS
[9] = test system: NCI-H522 lung
[10] = test system: OVCAR-4 ovarian
[11] = test system: UACC-62 melanoma
[12] = test system: OVCAR-5 ovarian
[13] = test system: M14 melanoma
[14] = test system: KM12 colon
[15] = test system: HOP-62 NSCLC
[16] = test system: CAKI-1 renal
[17] = test system: UACC-257 melanoma
[18] = test system: TK-10 renal
[19] = test system: HCT-15 colon
[20] = test system: SW-620 colon
[21] = test system: HCT-116 colon
[22] = test system: BT-549 breast
[23] = test system: NCI-H23 lung
[24] = test system: LOX IMVI melanoma
[25] = test system: MALME-3M melanoma
[26] = test system: K-562 leukemia
[27] = test system: SF-539 CNS
[28] = test system: OVCAR-8 ovarian
[29] = test system: ACHN renal
[30] = test system: A549 NSCLC
[31] = test system: RPMI-8226 leukemia
[32] = test system: RXF 393 renal
[33] = test system: IGROV1 ovarian
[34] = test system: U251 CNS
[35] = test system: HS 578T breast
[36] = test system: PC-3 prostate
[37] = test system: SK-MEL-5 melanoma
[38] = test system: HT29 colon
[39] = test system: SN12C renal
[40] = test system: T-47D breast
[41] = test system: UO-31 renal
[42] = test system: COLO 205 colon
[43] = test system: SK-MEL-28 melanoma
[44] = test system: MDA-MB-231 breast
[45] = test system: SF-268 CNS
[46] = test system: DU-145 prostate
[47] = test system: SK-MEL-2 melanoma
[48] = test system: MDA-MB-435
[49] = test system: NCI/ADR-RES ovarian
[50] = test system: SK-OV-3 ovarian
[51] = test system: CCRF-CEM leukemia
[52] = test system: EKVX NSCLC
[53] = test system: HOP-92 NSCLC
[54] = test system: MOLT-4 leukemia
[55] = test system: 786-0 renal
[56] = test system: A498 renal

Question: Which results are given for `COc1cc(Nc2ncccc2C(=O)NCc2cn(Cc3cccc(Oc4ccccc4)c3)nn2)cc(OC)c1`?
Answer: GI50 [1]: 9.82 µM; TGI [1]: > 100 µM; GI50 [2]: 3.97 µM; TGI [2]: > 100 µM; GI50 [3]: 3.69 µM; TGI [3]: > 100 µM; GI50 [4]: 4.06 µM; TGI [4]: > 100 µM; GI50 [5]: 9.6 µM; TGI [5]: > 100 µM; GI50 [6]: 3.98 µM; TGI [6]: > 100 µM; GI50 [7]: 9.64 µM; TGI [7]: > 100 µM; GI50 [8]: 3.98 µM; TGI [8]: > 100 µM; GI50 [9]: 3.31 µM; TGI [9]: > 100 µM; GI50 [10]: 5.42 µM; TGI [10]: > 100 µM; GI50 [11]: 3.68 µM; TGI [11]: > 100 µM; GI50 [12]: > 100 µM; TGI [12]: > 100 µM; GI50 [13]: 4.8 µM; TGI [13]: > 100 µM; GI50 [14]: 3.84 µM; TGI [14]: > 100 µM; GI50 [15]: 6.31 µM; TGI [15]: > 100 µM; GI50 [16]: 6.3 µM; TGI [16]: > 100 µM; GI50 [17]: 4.86 µM; TGI [17]: > 100 µM; GI50 [18]: 51.6 µM; TGI [18]: > 100 µM; GI50 [19]: 3.89 µM; TGI [19]: > 100 µM; GI50 [20]: 3.88 µM; TGI [20]: > 100 µM; GI50 [21]: 4.34 µM; TGI [21]: > 100 µM; GI50 [22]: 7.16 µM; TGI [22]: > 100 µM; GI50 [23]: 6.22 µM; TGI [23]: > 100 µM; GI50 [24]: 5.1 µM; TGI [24]: > 100 µM; GI50 [25]: 5.81 µM; TGI [25]: > 100 µM; GI50 [26]: 5.05 µM; TGI [26]: > 100 µM; GI50 [27]: 4.39 µM; TGI [27]: > 100 µM; GI50 [28]: 5.96 µM; TGI [28]: > 100 µM; GI50 [29]: 6.9 µM; TGI [29]: > 100 µM; GI50 [30]: 4.02 µM; TGI [30]: > 100 µM; GI50 [31]: 5.25 µM; TGI [31]: > 100 µM; GI50 [32]: 3.77 µM; TGI [32]: > 100 µM; GI50 [33]: > 100 µM; TGI [33]: > 100 µM; GI50 [34]: 4.58 µM; TGI [34]: > 100 µM; GI50 [35]: > 100 µM; TGI [35]: > 100 µM; GI50 [36]: 4.74 µM; TGI [36]: > 100 µM; GI50 [37]: 3.11 µM; TGI [37]: > 100 µM; GI50 [38]: 3.88 µM; TGI [38]: > 100 µM; GI50 [39]: 7.41 µM; TGI [39]: > 100 µM; GI50 [40]: 4.58 µM; TGI [40]: > 100 µM; GI50 [41]: 5.25 µM; TGI [41]: > 100 µM; GI50 [42]: 4.12 µM; TGI [42]: > 100 µM; GI50 [43]: 4.14 µM; TGI [43]: > 100 µM; GI50 [44]: 5.33 µM; TGI [44]: > 100 µM; GI50 [45]: 5.43 µM; TGI [45]: > 100 µM; GI50 [46]: 10.5 µM; TGI [46]: > 100 µM; GI50 [47]: 6.68 µM; TGI [47]: > 100 µM; GI50 [48]: 2.23 µM; TGI [48]: 5.43 µM; GI50 [49]: 3.21 µM; TGI [49]: > 100 µM; GI50 [50]: 4.33 µM; TGI [50]: > 100 µM; GI50 [51]: 4.19 µM; TGI [51]: > 100 µM; GI50 [52]: 6.33 µM; TGI [52]: > 100 µM; GI50 [53]: 46.7 µM; TGI [53]: > 100 µM; GI50 [54]: 4.86 µM; TGI [54]: > 100 µM; GI50 [55]: 6.73 µM; TGI [55]: > 100 µM; GI50 [56]: 4.18 µM; TGI [56]: > 100 µM

Source: PubChem BioAssay (NCI)
